Experimental findings from patent publication US6727232B2, “Nucleoside peptide antibiotics of AA-896” (Wyeth Holdings Corporation, priority 2001, dated 2004) are described below.

What is called MIC is the lowest concentration that inhibits growth of the organism.

Experiment in all cases: Broth dilution MIC
Holding throughout (assay type): cell-based

For one assay, the system named is CNS GC 4537. To be noted: CNS GC 4537; Mueller-Hinton broth, 18 hours at 35° C.; read-out: Antimicrobial Activity (MIC). The procedure: (§1) The in vitro antibacterial activity of Example 1 through Example 20 is determined against a spectrum of Gram-positive and Gram-negative bacteria by a standard broth dilution method. Serial dilution of the compounds are made in Mueller-Hinton broth and inoculated with a bacterial suspension. The lowest concentration of compound that inhibited the growth of a bacterial strain after 18 hours of incubation at 35° C. is reported as the minimal inhibitory concentration (MIC) for that strain.

For a further assay, the system named is CNS GC 4538. To be noted: CNS GC 4538; Mueller-Hinton broth, 18 hours at 35° C.; read-out: Antimicrobial Activity (MIC). The procedure:
as §1

For another assay, the system named is CNS GC 4547. To be noted: CNS GC 4547; Mueller-Hinton broth, 18 hours at 35° C.; read-out: Antimicrobial Activity (MIC). The procedure: as §1
A further assay relates to E. cloacae GC 3783. The settings on record: Enterobacter cloacae, GC3783; E. cloacae GC 3783; Mueller-Hinton broth, 18 hours at 35° C.; read-out: Antimicrobial Activity (MIC). The protocol:
as §1

Another assay concerns E. coli GC 2203. To be noted: Escherichia coli, GC2203; E. coli GC 2203; Mueller-Hinton broth, 18 hours at 35° C.; read-out: Antimicrobial Activity (MIC). The procedure: as §1
For another assay, the system named is E. coli GC 3226. The settings on record: Escherichia coli, GC3226; E. coli GC 3226; Mueller-Hinton broth, 18 hours at 35° C.; read-out: Antimicrobial Activity (MIC). The procedure:
as §1

In the next assay the test system is E. coli GC 4559. To be noted: Escherichia coli, GC4559; E. coli GC 4559; Mueller-Hinton broth, 18 hours at 35° C.; read-out: Antimicrobial Activity (MIC). The procedure: as §1
A further assay deals with E. coli GC 4560. To be noted: Escherichia coli, GC4560, 18 h, read-out: Antimicrobial Activity (MIC). The protocol:
as §1

In the next assay the test system is E. faecalis GC 2242. To be noted: Enterococcus faecalis, GC2242; E. faecalis GC 2242; Mueller-Hinton broth, 18 hours at 35° C.; read-out: Antimicrobial Activity (MIC). The procedure:
as §1

For a further assay, the system named is E. faecalis GC 4555. The settings on record: Enterococcus faecalis, GC4555; E. faecalis GC 4555; Mueller-Hinton broth, 18 hours at 35° C.; read-out: Antimicrobial Activity (MIC). The protocol:
as §1

For the next assay, the system named is E. faecalis GC 842. To be noted: Enterococcus faecalis, GC842; E. faecalis GC 842; Mueller-Hinton broth, 18 hours at 35° C.; read-out: Antimicrobial Activity (MIC). The protocol:
as §1

The subject of a further assay is K. pneumoniae GC 4534. To be noted: Klebsiella pneumoniae, GC4534; K. pneumoniae GC 4534; Mueller-Hinton broth, 18 hours at 35° C.; read-out: Antimicrobial Activity (MIC). The procedure:
as §1

A further assay concerns M. morganii GC 4531. To be noted: Morganella morganii, GC4531; M. morganii GC 4531; Mueller-Hinton broth, 18 hours at 35° C.; read-out: Antimicrobial Activity (MIC). The protocol:
as §1

Another assay relates to P. aeruginosa GC 2214. To be noted: Pseudomonas aeruginosa, GC2214; P. aeruginosa GC 2214; Mueller-Hinton broth, 18 hours at 35° C.; read-out: Antimicrobial Activity (MIC). The protocol: as §1
For another assay, the system named is P. aeruginosa GC 4532. The settings on record: Pseudomonas aeruginosa, GC4532; P. aeruginosa GC 4532; Mueller-Hinton broth, 18 hours at 35° C.; read-out: Antimicrobial Activity (MIC). The protocol:
as §1

The next assay relates to P. rettgeri GC 4530. To be noted: Providencia rettgeri, GC4530; P. rettgeri GC 4530; Mueller-Hinton broth, 18 hours at 35° C.; read-out: Antimicrobial Activity (MIC). The procedure: as §1
A further assay concerns S. aureus GC 1131. To be noted: Staphylococcus aureus, GC1131; S. aureus GC 1131; Mueller-Hinton broth, 18 hours at 35° C.; read-out: Antimicrobial Activity (MIC). The protocol:
as §1

Another assay relates to S. aureus GC 2216. The settings on record: Staphylococcus aureus, GC2216; S. aureus GC 2216; Mueller-Hinton broth, 18 hours at 35° C.; read-out: Antimicrobial Activity (MIC). The protocol:
as §1

The next assay concerns S. aureus GC 4536. The settings on record: Staphylococcus aureus, GC4536; S. aureus GC 4536; Mueller-Hinton broth, 18 hours at 35° C.; read-out: Antimicrobial Activity (MIC). The procedure: as §1
In a further assay the test system is S. marcescens GC 4077. The settings on record: Serratia marcescens, GC4077; S. marcescens GC 4077; Mueller-Hinton broth, 18 hours at 35° C.; read-out: Antimicrobial Activity (MIC). The protocol: as §1

Molecules are shown by their SMILES. Converted amounts (≈) assume the structure as drawn.

Take `COc1ccc(N2C(=O)C([C@@H](OC3O[C@H](CN)[C@H](O)[C@H]3OC)[C@H]3O[C@@H](n4ccc(=O)[nH]c4=O)[C@H](O)[C@@H]3O)N(CCCNC(=O)C(NC(=O)C(NC(=O)NC(C(=O)O)C(C)C)C3CCNC(=N)N3)C(O)C(C)C)C2=O)cc1` (stereo partly drawn) [Example 4, 14-[5-((R)-{[(3R,4S,5R)-5-(Aminomethyl)-4-hydroxy-3-methoxytetrahydro-2-furanyl]oxy}{(2S,3S,4R,5R)-5-[2,4-dioxo-3,4-dihydro-1 (2H)-pyrimidinyl]-3,4-dihydroxytetrahydro-2-furanyl}methyl)-3-(4-methoxyphenyl)-2,4-dioxo-1-imidazolidinyl]-9-(1-hydroxy-2-methylpropyl)-6-(2-iminohexahydro-4-pyrimidinyl)-2-isopropyl-4,7,10-trioxo-3,5,8,11-tetraazatetradecan-1-oic acid]: the MIC in the assay with CNS GC 4537, with CNS GC 4538, in the assay with CNS GC 4547, in the assay with E. cloacae GC 3783, with E. coli GC 2203 and with E. coli GC 3226 was above 32 µg/mL each time. Moreover, the MIC in the assay on E. coli GC 4559, with E. coli GC 4560, in the assay with E. faecalis GC 2242, in the assay with E. faecalis GC 4555, with E. faecalis GC 842 and in the assay on K. pneumoniae GC 4534 was above 32 µg/mL in each case. For the same compound, the MIC in the assay on M. morganii GC 4531, with P. aeruginosa GC 2214, in the assay with P. aeruginosa GC 4532, in the assay with P. rettgeri GC 4530, with S. aureus GC 1131 and in the assay on S. aureus GC 2216 was above 32 µg/mL each time. The MIC with S. aureus GC 4536 and in the assay with S. marcescens GC 4077 was above 32 µg/mL throughout.

In the case of `CCCCCCCCCCCCN1C(=O)C([C@@H](OC2O[C@H](CN)[C@H](O)[C@H]2OC)[C@H]2O[C@@H](n3ccc(=O)[nH]c3=O)[C@H](O)[C@@H]2O)N(CCCNC(=O)C(NC(=O)C(NC(=O)NC(C(=O)O)C(C)C)C2CCNC(=N)N2)C(O)C(C)C)C1=O` (stereo partly drawn) [Example 5, 14-[5-((R)-{[(3R,4S,5R)-5-(Aminomethyl)-4-hydroxy-3-methoxytetrahydro-2-furanyl]oxy}{(2S,3S,4R,5R)-5-[2,4-dioxo-3,4-dihydro-1 (2H)-pyrimidinyl]-3,4-dihydroxytetrahydro-2-furanyl}methyl)-3-dodecyl-2,4-dioxo-1-imidazolidinyl]-9-(1-hydroxy-2-methylpropyl)-6-(2-iminohexahydro-4-pyrimidinyl)-2-isopropyl-4,7,10-trioxo-3,5,8,11-tetraazatetradecan-1-oic acid], the MIC with CNS GC 4537, with CNS GC 4538, in the assay on CNS GC 4547, in the assay with E. cloacae GC 3783, in the assay on E. coli GC 2203 and with E. coli GC 3226 was above 32 µg/mL each time. The MIC with E. coli GC 4559 was above 32 µg/mL; in the assay on E. coli GC 4560, 4 µg/mL (≈ 3.51 µM); in the assay on E. faecalis GC 2242, above 32 µg/mL; in the assay on E. faecalis GC 4555, above 32 µg/mL; in the assay on E. faecalis GC 842, above 32 µg/mL; in the assay with K. pneumoniae GC 4534 it was above 32 µg/mL. For the same compound, the MIC in the assay with M. morganii GC 4531, in the assay with P. aeruginosa GC 2214, in the assay with P. aeruginosa GC 4532, with P. rettgeri GC 4530, in the assay with S. aureus GC 1131 and with S. aureus GC 2216 was above 32 µg/mL in each case. The MIC with S. aureus GC 4536 and in the assay on S. marcescens GC 4077 was above 32 µg/mL in each case.

For the compound `CO[C@H]1C(O[C@H](C(C(=O)O)N(CCCNC(=O)C(NC(=O)C(NC(=O)NC(C(=O)O)C(C)C)C2CCNC(=N)N2)C(O)C(C)C)Cc2ccccc2)[C@H]2O[C@@H](n3ccc(=O)[nH]c3=O)[C@H](O)[C@@H]2O)O[C@H](CN)[C@@H]1O` (stereo partly drawn) [Example 6, 16-((R)-{[(3R,4S,5R)-5-(Aminomethyl)-4-hydroxy-3-methoxytetrahydro-2-furanyl]oxy}{(2S,3S,4R,5R)-5-[2,4-dioxo-3,4-dihydro-1 (2H)-pyrimidinyl]-3,4-dihydroxytetrahydro-2-furanyl}methyl)-15-benzyl-9-(1-hydroxy-2-methylpropyl)-6-(2-iminohexahydro-4-pyrimidinyl)-2-isopropyl-4,7,10-trioxo-3,5,8,11,15-pentaazaheptadecane-1,17-dioic Acid], the MIC with CNS GC 4537, with CNS GC 4538, in the assay on CNS GC 4547, with E. cloacae GC 3783, with E. coli GC 2203 and in the assay with E. coli GC 3226 was above 32 µg/mL in each case. Further, the MIC with E. coli GC 4559 was above 32 µg/mL; in the assay on E. coli GC 4560 it was 2 µg/mL (≈ 1.93 µM); in the assay on E. faecalis GC 2242 it was above 32 µg/mL; with E. faecalis GC 4555 it was above 32 µg/mL; in the assay on E. faecalis GC 842, above 32 µg/mL; in the assay on K. pneumoniae GC 4534 it was above 32 µg/mL. In addition, the MIC with M. morganii GC 4531, in the assay on P. aeruginosa GC 2214, with P. aeruginosa GC 4532, in the assay on P. rettgeri GC 4530, in the assay on S. aureus GC 1131 and in the assay with S. aureus GC 2216 was above 32 µg/mL each time. Also, the MIC with S. aureus GC 4536 and with S. marcescens GC 4077 was above 32 µg/mL throughout.

Regarding `CCCCCCCCCCCCN(CCCNC(=O)C(NC(=O)C(NC(=O)NC(C(=O)O)C(C)C)C1CCNC(=N)N1)C(O)C(C)C)C(C(=O)O)[C@@H](OC1O[C@H](CN)[C@H](O)[C@H]1OC)[C@H]1O[C@@H](n2ccc(=O)[nH]c2=O)[C@H](O)[C@@H]1O` (stereo partly drawn) [Example 7, 16-((R)-{[(3R,4S,5R)-5-(Aminomethyl)-4-hydroxy-3-methoxytetrahydro-2-furanyl]oxy}{(2S,3S,4R,5R)-5-[2,4-dioxo-3,4-dihydro-1 (2H)-pyrimidinyl]-3,4-dihydroxytetrahydro-2-furanyl}methyl)-15-dodecyl-9-(1-hydroxy-2-methylpropyl)-6-(2-iminohexahydro-4-pyrimidinyl)-2-isopropyl-4,7,10-trioxo-3,5,8,11,15-pentaazaheptadecane-1,17-dioic Acid], the MIC with CNS GC 4537, in the assay on CNS GC 4538, in the assay with CNS GC 4547, with E. cloacae GC 3783, with E. coli GC 2203 and in the assay with E. coli GC 3226 was above 32 µg/mL each time. Moreover, the MIC was above 32 µg/mL in the assay on E. coli GC 4559; 16 µg/mL (≈ 14.4 µM) in the assay with E. coli GC 4560; above 32 µg/mL in the assay with E. faecalis GC 2242; above 32 µg/mL with E. faecalis GC 4555; above 32 µg/mL with E. faecalis GC 842; above 32 µg/mL in the assay with K. pneumoniae GC 4534. Also, the MIC in the assay on M. morganii GC 4531, in the assay on P. aeruginosa GC 2214, in the assay with P. aeruginosa GC 4532, in the assay with P. rettgeri GC 4530, in the assay with S. aureus GC 1131 and in the assay on S. aureus GC 2216 was above 32 µg/mL each time. The MIC in the assay with S. aureus GC 4536 and in the assay on S. marcescens GC 4077 was above 32 µg/mL throughout.
